From patent publication US6521751B1, “Recombinant nucleic acid sequences and methods for determining both genotoxicity and mutagenicity of a sample and the kinetics of the genotoxicity” (Vlaamse Instelling voor Technologisch Onderzoek (VITO), priority 1998, dated 2003)
Several values for one entry are separate records, joined by “and”; a condition that tells them apart may be missing. Identical values can stand only once. Like-named read-outs stand apart in the source and are kept apart here.

Legend:
[1] = tested on: novel biosensor systems in E. coli and in S. typhimurium strains; assay: Subject SOS promoter-lux systems (general statements); details: for result in the novel systems according to the invention: agents known to give false negative results in the SOS chromotest and the Ames test
[2] = tested on: TA 98 and TA104 strains containing pMOL1067 or pMOL1068
E. coli (sfiA-lacZ) = details: cited from earlier work
S. typhimurium = details: cited from earlier work
[3] = tested on: S. typhimurium TA104 containing pMOL1066
[4] = tested on: S. typhimurium TA104 containing pMOL1067
[5] = tested on: S. typhimurium TA104 containing pMOL1068
[6] = tested on: S. typhimurium TA104 containing pMOL1069
[7] = tested on: S. typhimurium TA98 containing pMOL1067
[8] = tested on: S. typhimurium TA98 containing pMOL1068
[9] = tested on: S. typhimurium TA98 containing pMOL890
[10] = tested on: S. typhimurium TA104 containing pMOL890
[11] = tested on: TA98 and TA104 strains containing pMOL890, pMOL1067 or pMOL1068; assay: Test with the TA98 and TA104 strains containing pMOL890, pMOL1067 or pMOL1068
[12] = tested on: S. typhimurium TA98* containing pMOL890
[13] = tested on: S. typhimurium TA100* containing pMOL890
[14] = tested on: S. typhimurium TA104* containing pMOL890
[15] = TA 98 and TA104 strains containing pMOL1067 or pMOL1068
[16] = SOS chromotest, literature values

Compound: CO[C@@]12[C@H](COC(N)=O)C3=C(C(=O)C(C)=C(N)C3=O)N1C[C@@H]1N[C@@H]12 [Mitomycin C]
- level that can be detected ([1]; subject systems): 7 ng/mL

Compound: [Cl-].[Cl-].[Zn+2] [ZnCl2]
- OUTCOME (genotoxicity, final outcome) [2]: neg
- SOS (result) (E. coli (sfiA-lacZ)): neg
- AMES (result) (S. typhimurium): neg

Compound: COc1ccc2nc3cc(Cl)ccc3c(NCCCNCCCl)c2c1 [ICR191]
- MINIMAL DETECTED CONCENTRATION (MDC) ([3]; Salmonella typhimurium): 1.1 nmol/assay
- MINIMAL DETECTED CONCENTRATION (MDC) ([4]; Salmonella typhimurium): 0.55 nmol/assay
- MINIMAL DETECTED CONCENTRATION (MDC) ([5]; Salmonella typhimurium): 0.55 nmol/assay
- MINIMAL DETECTED CONCENTRATION (MDC) ([6]; Salmonella typhimurium): 1.1 nmol/assay
- MINIMAL DETECTED CONCENTRATION (MDC) ([7]; Salmonella typhimurium): 0.28 nmol/assay
- MINIMAL DETECTED CONCENTRATION (MDC) ([8]; Salmonella typhimurium): 0.14 nmol/assay
- MINIMAL DETECTED CONCENTRATION (MDC) ([9]; Salmonella typhimurium): 0.14 nmol/assay
- MINIMAL DETECTED CONCENTRATION (MDC) ([10]; Salmonella typhimurium): 0.14 nmol/assay
- OUTCOME (genotoxicity, final outcome) [2]: pos
- MINIMAL DETECTED CONCENTRATION (MDC) (E. coli (sfiA-lacZ)): 0.13 nmol/assay
- SOS (result) (E. coli (sfiA-lacZ)): pos
- AMES (result) (S. typhimurium): pos
- MINIMAL DETECTED CONCENTRATION (MDC) (S. typhimurium): pos

Compound: O=P1(N(CCCl)CCCl)NCCCO1 (centres unmarked) [Cyclophosphamide]
- OUTCOME (genotoxicity, final outcome) [2]: neg
- SOS (result) (E. coli (sfiA-lacZ)): neg
- AMES (result) (S. typhimurium): pos
- result in the test (genotoxicity) [11]: negative

Compound: COC(=O)N/N=C/c1c[n+]([O-])c2ccccc2[n+]1[O-] [Carbadox]
- OUTCOME (genotoxicity, final outcome) [2, 15]: pos
- SOS (result) (E. coli (sfiA-lacZ); SOS chromotest, Table 3): pos
- AMES (result) (S. typhimurium; Ames test, Table 3): pos

Compound: CCCCCCCCCCCCOS(=O)(=O)[O-].[Na+] [Sodium Dodecyl Sulphate]
- OUTCOME (genotoxicity, final outcome) [2, 15]: neg
- AMES (result) (S. typhimurium; Ames test, Table 3): neg

Compound: c1ccc2cc3ccccc3cc2c1 [Anthracene]
- OUTCOME (genotoxicity, final outcome) [2, 15]: neg
- SOS (result) (E. coli (sfiA-lacZ); SOS chromotest, Table 3): neg
- AMES (result) (S. typhimurium): neg

Compound: Cl[C@H]1[C@H](Cl)[C@@H](Cl)[C@@H](Cl)[C@H](Cl)[C@H]1Cl [Lindane]
- OUTCOME (genotoxicity, final outcome) [2, 15]: neg
- SOS (result) (E. coli (sfiA-lacZ); SOS chromotest, Table 3): neg
- AMES (result) (S. typhimurium): neg

Compound: S=C1NCCN1 [Ethylenethiourea]
- AMES (result) (S. typhimurium): pos

Compound: O=C(N/N=C/c1ccc([N+](=O)[O-])o1)c1ccc(O)cc1 [Nifuroxazide]
- OUTCOME (genotoxicity, final outcome) [2, 15]: pos
- AMES (result) (S. typhimurium; Ames test, Table 3): pos

Compound: Oc1c(Cl)c(Cl)c(Cl)c(Cl)c1Cl [Pentachlorophenole]
- SOS (result) (E. coli (sfiA-lacZ)): pos

Compound: ClCC1CO1 (centres unmarked) [Epichlorohydrine]
- OUTCOME (genotoxicity, final outcome) [2]: pos
- SOS (result) (E. coli (sfiA-lacZ)): pos
- AMES (result) (S. typhimurium): pos

Compound: CNC(=O)Oc1cccc2ccccc12 [Carbaryl]
- SOS (result) (E. coli (sfiA-lacZ)): pos

Compound: c1ccc2c(c1)cc1ccc3cccc4ccc2c1c34 [BαP, benzo-α-pyrene]
- Number of His^+ revertants ([12]; BαP 10 mmol + S9): 24
- Number of His^+ revertants ([12]; BαP 50 mmol − S9): 0
- Number of His^+ revertants ([12]; BαP 200 mmol + S9): 49 and 50
- Number of His^+ revertants ([12]; BαP 200 mmol − S9): 0
- Number of His^+ revertants ([12]; BαP 600 mmol + S9): 29 and 33
- Number of His^+ revertants ([12]; BαP 600 mmol − S9): 0
- Number of His^+ revertants ([13]; BαP 10 mmol + S9): 67 and 80
- Number of His^+ revertants ([13]; BαP 50 mmol + S9): 64 and 54
- Number of His^+ revertants ([13]; BαP 50 mmol − S9): 15 and 11
- Number of His^+ revertants ([13]; BαP 200 mmol + S9): 59 and 58
- Number of His^+ revertants ([13]; BαP 600 mmol + S9): 74 and 73
- Number of His^+ revertants ([13]; BαP 600 mmol − S9): 6 and 3
- Number of His^+ revertants ([14]; BαP 50 mmol + S9): 82 and 85
- Number of His^+ revertants ([14]; BαP 50 mmol − S9): 29 and 27
- Number of His^+ revertants ([14]; BαP 200 mmol + S9): 87
- Number of His^+ revertants ([14]; BαP 200 mmol − S9): 26 and 32
- Number of His^+ revertants ([14]; BαP 600 mmol + S9): 57 and 69
- Number of His^+ revertants ([14]; BαP 600 mmol − S9): 21 and 19
- MINIMAL DETECTED CONCENTRATION (MDC) ([3]; TA104 pMOL1066): 0.16 nmol/assay
- MINIMAL DETECTED CONCENTRATION (MDC) ([4]; TA104 pMOL1067): 0.079 nmol/assay
- MINIMAL DETECTED CONCENTRATION (MDC) ([5]; TA104 pMOL1068): 0.16 nmol/assay
- MINIMAL DETECTED CONCENTRATION (MDC) ([6]; TA104 pMOL1069): 0.16 nmol/assay
- MINIMAL DETECTED CONCENTRATION (MDC) ([7]; TA98 pMOL1067): 0.16 nmol/assay
- MINIMAL DETECTED CONCENTRATION (MDC) ([8]; TA98 pMOL1068): 0.16 nmol/assay
- MINIMAL DETECTED CONCENTRATION (MDC) ([9]; TA98 pMOL890): 1.59 nmol/assay
- MINIMAL DETECTED CONCENTRATION (MDC) ([10]; TA104 pMOL890): 0.32 nmol/assay
- OUTCOME (genotoxicity, final outcome) [2, 15]: pos
- SOS (result) (E. coli (sfiA-lacZ); SOS chromotest, Table 3): pos
- MINIMAL DETECTED CONCENTRATION (MDC) (E. coli (sfiA-lacZ); [16]): 0.7 nmol/assay

Compound: CCn1cc(C(=O)O)c(=O)c2ccc(C)nc21 [Nalidixic acid]
- OUTCOME (genotoxicity, final outcome) [2, 15]: pos
- AMES (result) (S. typhimurium): neg
- result in the Ames test (S. typhimurium): False-negative
- result in the novel systems according to the invention [1]: positive
- result in the test (genotoxicity) [11]: positive

Compound: c1ccc2c(c1)ccc1c3ccccc3ccc21 [chrysene]
- MINIMAL DETECTED CONCENTRATION (MDC) ([3]; TA104 pMOL1066): 1.095 nmol/assay
- MINIMAL DETECTED CONCENTRATION (MDC) ([4]; TA104 pMOL1067): 0.55 nmol/assay
- MINIMAL DETECTED CONCENTRATION (MDC) ([5]; TA104 pMOL1068): 1.095 nmol/assay
- MINIMAL DETECTED CONCENTRATION (MDC) ([6]; TA104 pMOL1069): 0.55 nmol/assay
- MINIMAL DETECTED CONCENTRATION (MDC) ([7]; TA98 pMOL1067): 5.5 nmol/assay
- MINIMAL DETECTED CONCENTRATION (MDC) ([8]; TA98 pMOL1068): 5.5 nmol/assay
- MINIMAL DETECTED CONCENTRATION (MDC) ([9]; TA98 pMOL890): 2.2 nmol/assay
- MINIMAL DETECTED CONCENTRATION (MDC) ([10]; TA104 pMOL890): 2.2 nmol/assay
- OUTCOME (genotoxicity, final outcome) [2, 15]: pos
- SOS (result) (E. coli (sfiA-lacZ); SOS chromotest, Table 3): pos
- MINIMAL DETECTED CONCENTRATION (MDC) (E. coli (sfiA-lacZ); [16]): 11 nmol/assay
- AMES (result) (S. typhimurium): pos
- MINIMAL DETECTED CONCENTRATION (MDC) (S. typhimurium): pos

Compound: c1cc2ccc3cccc4ccc(c1)c2c34 [Pyrene]
- OUTCOME (genotoxicity, final outcome) [2, 15]: pos
- AMES (result) (S. typhimurium): neg
- result in the Ames test (S. typhimurium): False-negative
- result in the novel systems according to the invention [1]: positive
- result in the test (genotoxicity) [11]: positive

Compound: 4-nitroquinoline-N-oxyde [4-NQO]
- OUTCOME (genotoxicity, final outcome) [2]: pos
- MINIMAL DETECTED CONCENTRATION (MDC) (E. coli (sfiA-lacZ)): 0.006 nmol/assay
- SOS (result) (E. coli (sfiA-lacZ)): pos

Compound: CN(Cc1cnc2nc(N)nc(N)c2n1)c1ccc(C(=O)N[C@@H](CCC(=O)O)C(=O)O)cc1 [Methotrexate]
- OUTCOME (genotoxicity, final outcome) [2, 15]: pos
- SOS (result) (E. coli (sfiA-lacZ); SOS chromotest, Table 3): pos
- AMES (result) (S. typhimurium; Ames test, Table 3): pos

Compound: NN [Hydrazine]
- OUTCOME (genotoxicity, final outcome) [2, 15]: pos
- SOS (result) (E. coli (sfiA-lacZ); SOS chromotest, Table 3): pos
- AMES (result) (S. typhimurium): pos

Compound: [Cl][Cd][Cl] [CdCl2]
- MINIMAL DETECTED CONCENTRATION (MDC) [3]: neg
- MINIMAL DETECTED CONCENTRATION (MDC) [4]: neg
- MINIMAL DETECTED CONCENTRATION (MDC) [5]: neg
- MINIMAL DETECTED CONCENTRATION (MDC) [6]: neg
- MINIMAL DETECTED CONCENTRATION (MDC) [7]: neg
- MINIMAL DETECTED CONCENTRATION (MDC) [8]: neg
- MINIMAL DETECTED CONCENTRATION (MDC) [9]: neg
- MINIMAL DETECTED CONCENTRATION (MDC) [10]: neg
- OUTCOME (genotoxicity, final outcome) [2]: neg
- MINIMAL DETECTED CONCENTRATION (MDC) (E. coli (sfiA-lacZ)): neg
- SOS (result) (E. coli (sfiA-lacZ)): neg
- AMES (result) (S. typhimurium): neg
- MINIMAL DETECTED CONCENTRATION (MDC) (S. typhimurium): neg

Compound: CCOS(C)(=O)=O [Ethylmethanesulphonate]
- OUTCOME (genotoxicity, final outcome) [2]: pos
- SOS (result) (E. coli (sfiA-lacZ)): pos
- AMES (result) (S. typhimurium): pos

Compound: CCN(CC)N=O [N-Nitrosodiethylamine]
- OUTCOME (genotoxicity, final outcome) [2, 15]: pos
- SOS (result) (E. coli (sfiA-lacZ); SOS chromotest, Table 3): pos
- AMES (result) (S. typhimurium): pos

Compound: [N-]=[N+]=[N-] [Sodiumazide]
- OUTCOME (genotoxicity, final outcome) [2, 15]: pos
- SOS (result) (E. coli (sfiA-lacZ); SOS chromotest, Table 3): neg
- result in the SOS chromotest (E. coli (sfiA-lacZ); text b126): negative
- AMES (result) (S. typhimurium): pos
- result in the novel systems according to the invention [1]: positive
- result in the test (genotoxicity) [11]: positive

Compound: c1ccc2ccccc2c1 [Naphtalene]
- OUTCOME (genotoxicity, final outcome) [2]: neg
- SOS (result) (E. coli (sfiA-lacZ)): neg
